Experimental data taken from patent US9877966B1, “Combination therapy for the inhibition of metastasis and tumorigenesis” (priority 2015, dated 2018).

What was measured:
Assay type in all cases: cell-based, human
PC3M cells = test: Soft agar colony formation assay (anchorage independent growth)
Experimental: Compound 2 was tested for its ability to affect anchorage independent growth in a soft agar assay, a stringent method to detect malignant transformation of cells in vitro.

[1] = tested on: PC3M reporter cell line stably expressing PTB-GFP (ATP levels); test: ATP quantitation assay (ATPLite); conditions: Table 4, PC3M cells, 24 hrs
Experimental: This follow-up assay was conducted to measure the effect of compounds on cell health by measuring ATP levels (ATPLite™). ATPLite™ is an ATP monitoring system based on firefly (Photinus pyralis) luciferase. The level of ATP in a metabolically active cell is a general marker for its viability. ATP levels are often reduced during necrosis or apoptosis. In this assay, the luciferase enzyme catalyzes the conversion of the added substrate D-luciferin to oxyluciferin and light with ATP. Thus, the emitted light is proportional to the ATP concentration. For this assay, the highly metastatic PC3M reporter cell line stably expressing the PTB-GFP was provided by Professor Sui Huang of Northwestern University. The media and cell culture reagents were purchased from Invitrogen (Carlsbad, Calif.), ATPLite™ came from PerkinElmer.

[2] = tested on: PNC prevalence in PC3M cell line stably expressing GFP-PTB; test: High content assay for PNC detection (reduction of PNC prevalence); conditions: Table 4; PC3M GFP-PTB cells, 16 hrs
Source text: The quantitative output for this assay is the reduction of PNC prevalence. The PNC can be detected in living cells by the expression of a green fluorescent protein (GFP) tagged to the PNC localized protein, PTB. A PC3M cell line was used that stably expresses GFP-PTB to mark PNCs. This method eliminates the need for immunofluorescent staining.
The IN Cell Analyzer 1000 automated fluorescent imaging system (GE Healthcare, Piscataway, N.J.) was used for automated image acquisition. […] The instrument acquired images of each well in a 1536-well plate with a laser-based autofocus system. To score PNC prevalence in a high-content throughput, the Multi-Target Analysis (MTA) algorithm (GE Healthcare, Investigator v3.5) to identify individual cells and granules (PNCs) within these cells was used. The nucleus was segmented via a region growing method (50 μm^2 minimum area) with light shading and noise removal to allow “touching” nuclei to be separated. […] For this particular assay, PNC-positive cells were scored when 1 to 3 PNC granules were detected per nucleus. Cells that contained 0 granules were scored as PNC negative, and cells with >3 granules were assumed to be false positives (very few cells have more than 3 PNCs in one focus plane), and were also scored as PNC negative.

| SMILES | cell viability (PC3M cells; soft agar assay, 3.8, 18.6 nM) | number of colonies (anchorage independent growth) (PC3M cells; soft agar, after 14 days, 3.8, 18.6 nM) | ATP IC50 [1] | PNC IC50 [2] |
| --- | --- | --- | --- | --- |
| N=c1c2c(-c3ccccc3)c(-c3ccccc3)n(Cc3ccccc3)c2ncn1[C@H]1CC[C@H](O)CC1 [Compound 2, trans-4-(7-Benzyl-4-imino-5,6-diphenyl-4,7-dihydro-3H-pyrrolo[2,3-d]pyrimidin-3-yl)cyclohexanol] | no impact on cell viability | dose dependent reduction in the number of colonies |  |  |
| COC(=O)C[C@H](C(=O)OC)n1ncc2c(c(-c3ccccc3)cn2Cc2ccc(Br)cc2)c1=N [Compound 114] |  |  | inactive | inactive |
